Data on 13 compounds can be found in US8901118B2, “Compounds and methods for kinase modulation, and indications therefor” (Plexxikon Inc., priority 2010, dated 2014).

One data set deals with T1, BCR-NTRK2 BaF3 cells (Homo sapiens, UniProt Q16620).
T1 construct: fused on or other part: P11274 (Breakpoint cluster region protein)
The experiment in a line: BaF3 BCR-NTRK2 cell proliferation assay (ATPlite). In kind it is cell-based. The following applies: read-out: Inhibition of Cell Proliferation IC50, BCR/BaF3 TrkB. As to the method: Compounds are assessed in a variety of cell based assays. For example BaF3 cells engineered with any of BCR-FMS, BCR-KIT, BCR-FLT3, BCR-NTRK1, BCR-NTRK2, and BCR-NTRK3, are used in cell proliferation assays to assess inhibitory activity of Fms, Kit, Flt-3, TrkA, TrkB, and TrkC, respectively. An MV-4-11 (leukemia) cell proliferation assay is used to assess inhibitory activity in Flt-3, and SKNSH (human neuroblastoma) cell proliferation assay is used to assess efficacy of Fms/Trk inhibitors. Additional cells may be assayed similarly to assess the efficacy of Fms/Trk inhibitors, such as MiaPaCa (human pancreatic cancer) and Capan-1 (human pancreatic carcinoma) cells. Reagent and assay conditions are as follows: • BaF3 cells: • Maintained in RPMI containing 10% FBS, 1% PenStrep, 1% NEAA, and 1% L-Glutamine, supplemented with 1 mg/mL G418 and 5% WEHI-CM (or recombinant murine IL-3). • Confluent cells are split 1:50 to 1:100 every 3-4 days. • MV-4-11 cells: • Maintained in Iscove's Modified Dulbecco's Medium containing 10% FBS. • Confluent cells are split 1:4 every 3-4 days. • SKNSH cells: RPMI containing 10% FBS. On day 1, cells are counted, then centrifuged in a conical tube for 5 minutes at 1000 rpm. The supernatant is removed and cells are re-suspended as follows: • BaF3: resuspend in growth media +1 mg/mL G418 (without WEHFIL-3) to 2×10^5 cells/mL. • MV-4-11: resuspend in growth media to 5×10^5 cells/mL. • SKNSH: resuspend in growth media to 2×10^4 cells/mL. The cells are plated (50 μL, 150 μL for SKNSH cells) in each well of a 96-well dish (Corning 3610) and incubated at 37° C. in 5% CO2 overnight, cells plated to a final concentration of cells as follows: • BaF3: 10,000 cells per well. • MV-4-11: 25,000 cells per well. • SKNSH: 3,000 cells per well. On day 2, compound at a maximum concentration of 5 mM is serially diluted 1:3 for a total of 8 point titration with DMSO as a control. A 1 μL aliquot of each dilution point is added to 249 μL growth media and 50 μL is added to a well containing cells, providing 10 μM compound for the maximum concentration point. The cells are incubated for 3 days at 37° C. in 5% CO2. For SKNSH cells, a 0.75 μL aliquot of appropriate dilution in DMSO is added to 150 μL of cells. On day 5, ATPlite 1 step Luminescence Assay System (Perkin Elmer #6016739) is brought to room temperature along with the cell cultures. ATPlite is added to each well as follows: • BaF3: 25 μL per well. • MV-4-11: 40 μL per well. • SKNSH: 20 μL per well. The cells are incubated at room temperature for 10 minutes, then luminescence is read on Safire reader. The measured luminescence correlates directly with cell number, such that the reading as a function of compound concentration is used to determine the IC50 value.
It is understood that the results of these assays may vary as assay conditions are varied. Inhibition levels determined under the conditions described herein represent a relative activity for the compounds tested under the specific conditions employed. The cell based assays are likely to show variability due to the complexity of the system and the sensitivity thereof to any changes in the assay conditions. […] Results for compounds that are tested and show substantially no inhibition below the highest tested concentration are represented as “-” in the tables below. In some instances, the compounds were not tested in all of the assays, or assay results were not valid, as indicated by NA in the tables below.
On the technique in general: In ATP-based viability assays light output follows the ATP content of the culture.

The nature of data set [1]: Relative solubility by turbidity in aqueous buffers (pH 1.5, 4.5, 6.8, 7.4). In kind it is physicochemical. As to conditions: for turbidity threshold (L, M, H) 1.4: pH 1.5 (SGF); for turbidity threshold (L, M, H) 4.5: pH 4.5 (SIF); for turbidity threshold (L, M, H) 6.8: pH 6.8 (SIF); for turbidity threshold (L, M, H) 7.4: pH 7.4 (HEPES). Here is the method: As an indication of relative solubility, the turbidity of compounds in aqueous solutions is assessed. To assess possible compound properties in different physiological compartments, such as stomach, intestine, and blood, a series of aqueous buffers with varying pH is used. Thus each compound is diluted into four different physiologically relevant buffers and solution turbidity is measured by spectrophotometry.
Compounds are dissolved at a concentration of 25 mM in dimethyl sulfoxide, then serially diluted 1:1 into a 96 well plate, diluting 10 times in pure dimethyl sulfoxide, with the final well of each row a dimethyl sulfoxide blank. In an assay plate, 99 μL of appropriate buffer is added to each well, and 1 μL of each sample dilution is added to the buffer, achieving a range of final total concentrations in aqueous solutions having different pH. The buffers used are Simulated Gastric Fluid (SGF-pH 1.5) 0.5M NaCl, pH 1.5; Simulated Intestinal fluid (SIF-pH 4.5 and pH 6.8) 0.05M NaH2PO4, pH 4.5 and 6.8; and Hepes Buffer (HEPES-pH 7.4) 10 mM HEPES, 150 mM NaCl, pH 7.4. Control compounds pyrene, estriol and propranolol HCl are also assessed. Plates are spun and then mixed for 1 minute, and the absorbance is read using a Tecan Safire II to read wavelengths in the visible range (490, 535, and 650 nm) at four locations per well, reflecting the degree of turbidity present. The average optical density for each wavelength in each well is graphed vs. compound concentration, and the concentration at which the curve crosses a threshold O.D. of 0.01 for each wavelength is reported as the endpoint turbidity assay result. The average of the three wavelengths is used to compare turbidity of compounds.

T1 sequence (Q16620 538-807): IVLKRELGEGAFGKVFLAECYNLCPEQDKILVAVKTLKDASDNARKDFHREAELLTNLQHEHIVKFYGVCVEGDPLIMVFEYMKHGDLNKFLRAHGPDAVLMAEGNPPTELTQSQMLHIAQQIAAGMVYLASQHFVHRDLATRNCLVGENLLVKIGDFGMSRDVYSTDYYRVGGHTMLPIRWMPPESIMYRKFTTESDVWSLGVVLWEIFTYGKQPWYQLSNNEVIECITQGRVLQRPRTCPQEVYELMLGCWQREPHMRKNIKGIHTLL

For `CC1CCC(Nc2ncc(Cc3c[nH]c4ncc(Cl)cc34)cn2)CC1` (stereo not drawn) [Compound P-3009, [5-(5-Chloro-1H-pyrrolo[2,3-b]pyridin-3-ylmethyl)-pyrimidin-2-yl]-(4-methyl-cyclohexyl)-amine], the IC50 on BCR-NTRK2 BaF3 cells is over 10 µM.

With `Cc1cnc2[nH]cc(Cc3cnc(Nc4ccc(F)cc4)nc3)c2c1` [Compound P-3010, (4-Fluoro-phenyl)-[5-(5-methyl-1H-pyrrolo[2,3-b]pyridin-3-ylmethyl)-pyrimidin-2-yl]-amine], on BCR-NTRK2 BaF3 cells, the IC50 is over 10 µM. For the same compound, in data set [1], the “turbidity threshold (L, M, H) 1.4” value was “H (high solubility if the threshold concentration is >250 μm)”; the “turbidity threshold (L, M, H) 4.5” value is listed as “L (low solubility if the threshold concentration is <31.3 μM)”; the “turbidity threshold (L, M, H) 6.8” value is reported as “L (low solubility if the threshold concentration is <31.3 μM)”; the “turbidity threshold (L, M, H) 7.4” value is “M (moderate solubility if the threshold concentration is 31.3 μM to 250 μM)”.

For the compound `Clc1ccc(Nc2ncc(Cc3c[nH]c4ncc(Cl)cc34)cn2)cc1` [Compound P-3011, (4-Chloro-phenyl)-[5-(5-chloro-1H-pyrrolo[2,3-b]pyridin-3-ylmethyl)-pyrimidin-2-yl]-amine], at BCR-NTRK2 BaF3 cells, the IC50 is under 1 µM.

Regarding `Fc1ccc(Nc2ncc(Cc3c[nH]c4ncc(Cl)cc34)cn2)cc1` [Compound P-3012, [5-(5-Chloro-1H-pyrrolo[2,3-b]pyridin-3-ylmethyl)-pyrimidin-2-yl]-(4-fluoro-phenyl)-amine], the IC50 at BCR-NTRK2 BaF3 cells was under 1 µM. Also, in data set [1], the “turbidity threshold (L, M, H) 1.4” value is listed as “M (moderate solubility if the threshold concentration is 31.3 μM to 250 μM)”; the “turbidity threshold (L, M, H) 4.5” value is reported as “M (moderate solubility if the threshold concentration is 31.3 μM to 250 μM)”; the “turbidity threshold (L, M, H) 6.8” value is on record as “M (moderate solubility if the threshold concentration is 31.3 μM to 250 μM)”; the “turbidity threshold (L, M, H) 7.4” value is on record as “M (moderate solubility if the threshold concentration is 31.3 μM to 250 μM)”.

With `Fc1nc(NC2CCC(F)(F)CC2)ccc1Cc1c[nH]c2ncc(Cl)cc12` [Compound P-3013, [5-(5-Chloro-1H-pyrrolo[2,3-b]pyridin-3-ylmethyl)-6-fluoro-pyridin-2-yl]-(4,4-difluoro-cyclohexyl)-amine], the IC50 at BCR-NTRK2 BaF3 cells is over 10 µM. Further, in data set [1], the “turbidity threshold (L, M, H) 1.4” value is reported as “L (low solubility if the threshold concentration is <31.3 μM)”; the “turbidity threshold (L, M, H) 4.5” value is listed as “L (low solubility if the threshold concentration is <31.3 μM)”; the “turbidity threshold (L, M, H) 6.8” value is “L (low solubility if the threshold concentration is <31.3 μM)”; the “turbidity threshold (L, M, H) 7.4” value was “L (low solubility if the threshold concentration is <31.3 μM)”.

As for `Fc1ccccc1Nc1ncc(Cc2c[nH]c3ncc(Cl)cc23)cn1` [Compound P-3014, [5-(5-Chloro-1H-pyrrolo[2,3-b]pyridin-3-ylmethyl)-pyrimidin-2-yl]-(2-fluoro-phenyl)-amine], the IC50 at BCR-NTRK2 BaF3 cells was over 10 µM. In data set [1], the “turbidity threshold (L, M, H) 1.4” value is “H (high solubility if the threshold concentration is >250 μm)”; the “turbidity threshold (L, M, H) 4.5” value is given as “M (moderate solubility if the threshold concentration is 31.3 μM to 250 μM)”; the “turbidity threshold (L, M, H) 6.8” value is “M (moderate solubility if the threshold concentration is 31.3 μM to 250 μM)”; the “turbidity threshold (L, M, H) 7.4” value is on record as “M (moderate solubility if the threshold concentration is 31.3 μM to 250 μM)”.

As to `Clc1cnc2[nH]cc(Cc3cnc(Nc4ccccc4Cl)nc3)c2c1` [Compound P-3015, (2-Chloro-phenyl)-[5-(5-chloro-1H-pyrrolo[2,3-b]pyridin-3-ylmethyl)-pyrimidin-2-yl]-amine], the IC50 on BCR-NTRK2 BaF3 cells is over 10 µM.

As for `COc1ccc(Nc2ccc(C(=O)c3c[nH]c4ncnc(NC(C)(C)C)c34)c(F)n2)cn1` [Compound P-4055, [4-(tert-butylamino)-7H-pyrrolo[2,3-d]pyrimidin-5-yl]-[2-fluoro-6-[(6-methoxy-3-pyridyl)amino]-3-pyridyl]methanone], the IC50 on BCR-NTRK2 BaF3 cells was under 0.01 µM. Further, in data set [1], the “turbidity threshold (L, M, H) 1.4” value is “M (moderate solubility if the threshold concentration is 31.3 μM to 250 μM)”; the “turbidity threshold (L, M, H) 4.5” value is “M (moderate solubility if the threshold concentration is 31.3 μM to 250 μM)”; the “turbidity threshold (L, M, H) 6.8” value is given as “L (low solubility if the threshold concentration is <31.3 μM)”; the “turbidity threshold (L, M, H) 7.4” value is “L (low solubility if the threshold concentration is <31.3 μM)”.

Regarding `CCc1ccc(Nc2ccc(C(=O)c3c[nH]c4ncnc(NCC(C)(C)O)c34)c(F)n2)cn1` [Compound P-4064, [6-[(6-ethyl-3-pyridyl)amino]-2-fluoro-3-pyridyl]-[4-[(2-hydroxy-2-methyl-propyl)amino]-7H-pyrrolo[2,3-d]pyrimidin-5-yl]methanone], the IC50 on BCR-NTRK2 BaF3 cells is under 0.01 µM.

For the compound `COc1ccc(Nc2ccc(C(=O)c3c[nH]c4ncnc(N5CCCCC5)c34)c(F)n2)cn1` [Compound P-4069, [2-fluoro-6-[(6-methoxy-3-pyridyl)amino]-3-pyridyl]-[4-(1-piperidyl)-7H-pyrrolo[2,3-d]pyrimidin-5-yl]methanone], the IC50 at BCR-NTRK2 BaF3 cells was over 1 µM.

As to `O=C(c1ccc(Nc2ccc(C3CC3)nc2)nc1F)c1c[nH]c2ncnc(NCC(F)(F)F)c12` [Compound P-4090, [6-[(6-cyclopropyl-3-pyridyl)amino]-2-fluoro-3-pyridyl]-[4-(2,2,2-trifluoroethylamino)-7H-pyrrolo[2,3-d]pyrimidin-5-yl]methanone], the IC50 on BCR-NTRK2 BaF3 cells was under 0.01 µM.

For `CCCNc1ncnc2[nH]cc(C(=O)c3ccc(Nc4ccc(C)nc4)nc3F)c12` [Compound P-4114, [2-fluoro-6-[(6-methyl-3-pyridyl)amino]-3-pyridyl]-[4-(propylamino)-7H-pyrrolo[2,3-d]pyrimidin-5-yl]methanone], in data set [1], the “turbidity threshold (L, M, H) 1.4” value is on record as “H (high solubility if the threshold concentration is >250 μm)”; the “turbidity threshold (L, M, H) 4.5” value is reported as “L (low solubility if the threshold concentration is <31.3 μM)”; the “turbidity threshold (L, M, H) 6.8” value is recorded as “L (low solubility if the threshold concentration is <31.3 μM)”; the “turbidity threshold (L, M, H) 7.4” value is “L (low solubility if the threshold concentration is <31.3 μM)”.

For the compound `COc1ccc(Nc2ccc(C(=O)c3c[nH]c4ncnc(NC5CC5)c34)c(F)n2)cn1` [Compound P-4126, [4-(cyclopropylamino)-7H-pyrrolo[2,3-d]pyrimidin-5-yl]-[2-fluoro-6-[(6-methoxy-3-pyridyl)amino]-3-pyridyl]methanone], the IC50 on BCR-NTRK2 BaF3 cells is under 0.01 µM.
